The values below come from patent US10858342B2, “Bicyclic imidazole derivatives useful for the treatment of renal diseases, cardiovascular diseases and fibrotic diseases” (Boehringer Ingelheim International GmbH, priority 2016, dated 2020).

Common to all, as to format: biochemical, cynomolgus monkey
Assay [1] addresses aldosterone synthase (CYP11B2) (Macaca fascicularis, UniProt A0A2K5UPL9). As to the kind of experiment: Inhibition of aldosterone synthase (cynomolgus adrenal mitochondria, aldosterone by mass spectrometry). As for the experimental part:
(§1) The aldosterone synthase and cortisol synthase inhibition assays employ cynomolgus adrenal gland mitochondria as the source of aldosterone synthase (CYP11B2) and cortisol synthase (CYP11B1). […] One unit of CYP11B2 and CYP11B1 activity in these preparations is defined as the amount of enzyme that generates 1 pmol of product in one hour under the conditions described.
(§2) The compounds of the invention may be evaluated for aldosterone synthase inhibition by the following assay:
(§3) Assays are performed in 96-well format in a final volume of 60 microL/well, containing 100 mM potassium phosphate, pH 7.4, 1% (v/v) DMSO, and additionally, 2 μM of corticosterone and 50 units of CYP11B2 activity. Reactions are started by the addition of NADPH to 1 mM and allowed to proceed for 90 minutes at 37° C. Reactions are terminated by the addition of 60 μL of MeCN containing an internal standard for mass spectrometry. One hundred microliters are then transferred to a glass filter plate and centrifuged at 570×g for 5 minutes and the filtrate is collected. Reaction product aldosterone is quantified by mass spectrometry. To determine the assay blank value (0% activity), NADPH is omitted from some reactions.
(§4) Dose dependent inhibition is quantified by the inclusion of compound at various concentrations. Maximum activity (100%) is defined by reactions containing NADPH, but without compound.

The test system of assay [2] is aldosterone synthase (CYP11B2). Described as above. As to conditions: selectivity for aldosterone synthase inhibition over cortisol synthase (CYP11B1) inhibition, fold. How it is done: as §1, §2, §3, §4
The target of assay [3] is cortisol synthase (CYP11B1) (Macaca fascicularis, UniProt A0A2K5ULY1). The experiment in a line: Inhibition of cortisol synthesis (cynomolgus adrenal mitochondria, cortisol by mass spectrometry). How it is done:
The aldosterone synthase and cortisol synthase inhibition assays employ cynomolgus adrenal gland mitochondria as the source of aldosterone synthase (CYP11B2) and cortisol synthase (CYP11B1). Mitochondria are prepared from frozen cynomolgus monkey adrenal glands according to Method A described in by J. D. McGarry et al. (Biochem. J., 1983, 214, 21-28), with a final resuspension in the AT buffer described in R. Yamaguchi et al. (Cell Death and Differentiation, 2007, 14, 616-624), frozen as aliquots in liquid nitrogen and stored at −80° C. until use. One unit of CYP11B2 and CYP11B1 activity in these preparations is defined as the amount of enzyme that generates 1 pmol of product in one hour under the conditions described.
as §3
Dose dependent inhibition is quantified by the inclusion of compound at various concentrations. Maximum activity (100%) is defined by reactions containing NADPH, but without compound. Activities at each concentration are expressed as a percentage of the maximum activity (y-axis) and plotted against concentration of compound (x-axis) and the concentration corresponding to 50% activity (IC50) determined using the XLFit curve-fitting program using a 4-parameter logistic model.
Assays are performed as for aldosterone synthase except for the use of 150 units of CYP11B1, 11-deoxycortisol as substrate and cortisol measured as product.

Where [4] appears, read: 2 μM corticosterone substrate, 50 units CYP11B2, 90 min, 37° C., read-out: Aldosterone Inhibition IC50.
[5] abbreviates: 11-deoxycortisol substrate, 150 units CYP11B1; read-out: Cortisol Inhibition IC50.
Where [6] appears, read: read-out: Cortisol Inhibition IC50; 11-deoxycortisol substrate, 150 units CYP11B1.

As usually defined, the IC50 is the concentration that inhibits the measured activity by half.

Structures are written as SMILES. Read-outs that look alike come from different tables or passages of the source.

aldosterone synthase (CYP11B2) (Macaca fascicularis, UniProt A0A2K5UPL9), sequence (A0A2K5UPL9 1-503): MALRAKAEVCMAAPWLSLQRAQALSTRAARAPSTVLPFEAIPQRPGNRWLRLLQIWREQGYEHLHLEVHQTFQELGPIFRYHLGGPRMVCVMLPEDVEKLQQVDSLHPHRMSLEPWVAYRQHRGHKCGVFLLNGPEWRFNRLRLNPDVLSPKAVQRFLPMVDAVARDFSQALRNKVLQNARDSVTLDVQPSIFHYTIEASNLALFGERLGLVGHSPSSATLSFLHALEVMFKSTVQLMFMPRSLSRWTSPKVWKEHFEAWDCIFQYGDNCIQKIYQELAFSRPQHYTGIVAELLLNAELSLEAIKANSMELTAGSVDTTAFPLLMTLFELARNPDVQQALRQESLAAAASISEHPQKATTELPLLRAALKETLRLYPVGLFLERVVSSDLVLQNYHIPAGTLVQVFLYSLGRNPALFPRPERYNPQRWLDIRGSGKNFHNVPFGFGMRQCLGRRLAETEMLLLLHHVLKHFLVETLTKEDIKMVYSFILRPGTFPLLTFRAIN

Consider `CN(C)c1ccc(-n2cnc3c2C(=O)CC(C)(C)C3)cc1` [C-ABO, 3-(4-Dimethylamino-phenyl)-6,6-dimethyl-3,5,6,7-tetrahydro-benzoimidazol-4-one], for which the half-inhibitory concentration (IC50) in assay [1] (setting [4]) was 130 nM; in assay [3] (setting [5]), 35000 nM. The molecule also returned a Selectivity in assay [2] of 270.

For `Cc1ccc(-n2cnc3c2C(=O)CC(C)(C)C3)cc1` [C-ACB, 6,6-Dimethyl-3-p-tolyl-3,5,6,7-tetrahydro-benzoimidazol-4-one], the half-inhibitory concentration (IC50) in assay [1] (setting [4]) amounted to 22 nM; in assay [3] (setting [5]), 4400 nM. Besides, in assay [2], the Selectivity is 200.

`CN1C(=O)CCc2cc(-n3cnc4c3C(=O)CC3(CC3)C4)ccc21` [C-ACH, 3-(1-Methyl-2-oxo-3,4-dihydroquinolin-6-yl)spiro[5,7-dihydrobenzimidazole-6,1′-cyclopropane]-4-one]: the IC50 in assay [1] (setting [4]) is 16 nM; in assay [3] (setting [5]), 4900 nM. Further, the Selectivity in assay [2] stood at 300.

On to `CC(=O)Nc1ccc(Cn2cnc3c2C(=O)CC(C)(C)C3)cc1` [C-ADE, N-[4-(5,5-Dimethyl-7-oxo-4,5,6,7-tetrahydro-benzoimidazol-1-ylmethyl)-phenyl]-acetamide], for which the IC50 in assay [1] (setting [4]) turned out to be 58 nM; in assay [3] (setting [5]) it was 1900 nM.

Take `CC1(C)CC(=O)c2c(ncn2CC2CCOCC2)C1` [C-ADI, 6,6-Dimethyl-3-(tetrahydro-pyran-4-ylmethyl)-3,5,6,7-tetrahydro-benzoimidazol-4-one]: the IC50 in assay [1] (setting [4]) worked out at 470 nM; in assay [3] (setting [5]) it was 19000 nM. This molecule also returned a Selectivity in assay [2] of 41.

As to `CN1C(=O)CCc2cc(-n3cnc4c3C(=O)CC3(CCC3)C4)ccc21` [C-AAV, 3-(1-Methyl-2-oxo-3,4-dihydroquinolin-6-yl)spiro[5,7-dihydrobenzimidazole-6,1′-cyclobutane]-4-one], the 50% inhibitory concentration (IC50) in assay [1] (setting [4]) came out at 47 nM; in assay [3] (setting [5]), 14000 nM. This molecule came in with a Selectivity in assay [2] of 300.

As to `N#Cc1ccc(-n2cnc3c2C(=O)CC2(CC2)C3)cc1Cl` [C-AAW, 3-(3-Chloro-4-cyano)-6,6-spirocyclopropyl-3,5,6,7-tetrahydrobenzimidazol-4-one], the 50% inhibitory concentration (IC50) amounted to 5 nM in assay [1] (setting [4]) and 220 nM in assay [3] (setting [6]). In assay [2], this molecule had a Selectivity of 43.

As to `COC(=O)c1ccc(-n2cnc3c2C(=O)CC(C)(C)C3)cc1` [C-ABW, 4-(5,5-Dimethyl-7-oxo-4,5,6,7-tetrahydro-benzoimidazol-1-yl)-benzoic acid methyl ester], the values for the IC50 in assay [1] (setting [4]) and in assay [3] (setting [5]) were 310 nM and 7500 nM, respectively. This molecule also yielded a Selectivity in assay [2] of 24.

As to `CN1C(=O)CCc2cc(-n3cnc4c3C(=O)CCC4)ccc21` [C-ACD, 1-Methyl-6-(7-oxo-4,5,6,7-tetrahydro-benzoimidazol-1-yl)-3,4-dihydro-1H-quinolin-2-one], the values for the IC50 in assay [1] (setting [4]) and in assay [3] (setting [5]) were 60 nM and 55000 nM, respectively. In assay [2], this molecule showed a Selectivity of 920.

On to `CC1(C)CC(=O)c2c(ncn2C2CCC3CCCCC3C2)C1` (stereo not drawn) [C-ACO, 3-(Decahydro-naphthalen-2-yl)-6,6-dimethyl-3,5,6,7-tetrahydro-benzoimdazol-4-one], for which the results for the concentration for half-maximal inhibition (IC50) in assay [1] (setting [4]) and in assay [3] (setting [5]) were 420 nM and 14000 nM, respectively.

Consider `CC1(C)CC(=O)c2c(ncn2CC2CCOC2)C1` (stereo not drawn) [C-ACX, 6,6-Dimethyl-3-(tetrahydro-furan-3-ylmethyl)-3,5,6,7-tetrahydro-benzoimidazol-4-one], for which the 50% inhibitory concentration (IC50) in assay [1] (setting [4]) is 870 nM; in assay [3] (setting [5]), more than 30000 nM. In assay [2], this molecule gave a Selectivity of 35.

In the case of `O=C1CCCc2ncn(-c3ccc4c(c3)OCCCO4)c21` [C-AAJ, 3-(3,4-Dihydro-2H-benzo[b][1,4]dioxepin-7-yl)-3,5,6,7-tetrahydro-benzoimidazol-4-one], the 50% inhibitory concentration (IC50) in assay [1] (setting [4]) is 440 nM; in assay [3] (setting [5]) it was more than 30000 nM. For the same molecule, the Selectivity in assay [2] is listed as 67.

As to `CC(C)Oc1ccc(-n2cnc3c2C(=O)CC(C)(C)C3)cc1` [C-ABQ, 3-(4-Isoporopoxy-phenyl)-6,6-dimethyl-3,5,6,7-tetrahydro-benzoimidazol-4-one], the IC50 in assay [1] (setting [4]) was 280 nM; in assay [3] (setting [5]), more than 100000 nM.

Turning to `N#Cc1ccc(-n2cnc3c2C(=O)CC(CO)C3)cc1Cl` (stereo not drawn) [C-AED, 2-Chloro-4-(5-hydroxymethyl-7-oxo-4,5,6,7-tetrahydro-benzoimidazol-1-yl)-benzonitrile], the IC50 in assay [1] (setting [4]) is 18 nM; in assay [3] (setting [6]) it was 8600 nM.

With `CC1(C)CC(=O)c2c(ncn2C2CCCCC2)C1` [C-ACK, 3-Cyclohexyl-6,6-dimethyl-3,5,6,7etrahydro-benzoimidazol-4-one], the IC50 is 260 nM in assay [1] (setting [4]) and 6100 nM in assay [3] (setting [5]).

For the molecule `O=C1CCCc2ncn(-c3ccc(Cl)c(Cl)c3)c21` [C-ACC, 3-(3,4-Dichloro-phenyl)-3,5,6,7-tetrahydro-benzoimidazol-4-one], the IC50 stood at 5.5 nM in assay [1] (setting [4]) and 1000 nM in assay [3] (setting [5]).

Turning to `CC1(C)CC(=O)c2c(ncn2[C@H]2CC[C@@H](C#N)CC2)C1` [C-ADL, 4-(5,5-Dimethyl-7-oxo-4,5,6,7-tetrahydro-benzoimidazol-1-yl)-cyclohexanecarbonitrile], the concentration for half-maximal inhibition (IC50) in assay [1] (setting [4]) came to 22 nM; in assay [3] (setting [5]), 7900 nM.

`CC1(C)CC(=O)c2c(ncn2Cc2ccc(C(=O)N3CC[C@@H](O)C3)cc2)C1` [C-ADT, 3-[4-((R)-3-Hydroxy-pyrrolidine-1-carbonyl)-benzyl]-6,6-dimethyl-3,5,6,7-tetrahydro-benzoimidazol-4-one]: the IC50 in assay [1] (setting [4]) was determined as 290 nM; in assay [3] (setting [5]), 29000 nM.

On to `N#C[C@H]1CC[C@H](n2cnc3c2C(=O)CCC3)CC1` [C-ACJ, trans-4-(7-Oxo-5,6-dihydro-4H-benzimidazol-1-yl)cyclohexanecarbonitrile], for which the IC50 in assay [1] (setting [4]) was 30 nM; in assay [3] (setting [5]), 13000 nM.

Take `CN(C)C(=O)[C@H]1CC(=O)c2c(ncn2-c2ccc(C#N)c(Cl)c2)C1` [C-AEE, (R)-1-(3-Chloro-4-cyano-phenyl)-7-oxo-4,5,6,7-tetrahydro-1H-benzoimidazole-5-carboxylic acid dimethylamide]: the IC50 was 190 nM in assay [1] (setting [4]) and more than 30000 nM in assay [3] (setting [6]).

For the molecule `N#Cc1ccc(-n2cnc3c2C(=O)CC2(CCOCC2)C3)cc1Cl` [C-AAQ, 3-(3-Chloro-4-cyano-phenyl)-6,6-3-o-tetrahydropyran-3,5,6,7-tetrahydro-benzoimidazol-4-one], the IC50 in assay [1] (setting [4]) is 44 nM; in assay [3] (setting [6]) it was 2900 nM.

`N#Cc1ccc(-n2cnc3c2C(=O)CCC3)nc1` [C-ADW, 6-(7-Oxo-4,5,6,7-tetrahydro-benzoimidazol-1-yl)-nicotinonitrile]: the IC50 in assay [1] turned out to be 290 nM; in assay [3] (setting [5]) it was 25000 nM.

Consider `CC1(C)CC(=O)c2c(ncn2C2CCCc3ccccc32)C1` (stereo not drawn) [C-ACS, 6,6-Dimethyl-3-(1,2,3,4-tetrahydronaphthalen-1-yl)-3,5,6,7-tetrahydro-benzoimidazol-4-one], for which the IC50 in assay [1] (setting [4]) is 93 nM; in assay [3] (setting [6]), 26000 nM.

With `CC1(C)CC(=O)c2c(ncn2-c2cccc(C#N)c2)C1` [C-ABS, 3-(5,5-Dimethyl-7-oxo-4,5,6,7-tetrahydro-benzoimidazol-1-yl)-benzonitrile], the IC50 is 250 nM in assay [1] (setting [4]) and 10000 nM in assay [3] (setting [5]).

Regarding `CC1(C)CC(=O)c2c(ncn2C2CCc3cc(Br)ccc3C2)C1` (stereo not drawn) [C-ACM, 3-(6-Bromo-1,2,3,4-tetrahydro-naphthalen-2-yl)-6,6-dimethyl-3,5,6,7-tetrahydro-benzoimidazol-4-on], the IC50 in assay [1] (setting [4]) is 53 nM; in assay [3] (setting [5]), more than 30000 nM.

For `CCOC(=O)C1CC(=O)c2c(ncn2-c2ccc(C#N)c(Cl)c2)C1` (stereo not drawn) [C-AAY, 1-(3-Chloro-4-cyano-phenyl)-7-oxo-4,5,6,7-tetrahydro-1H-benzoimidazole-5-carboxylic acid ethyl ester], the results for the IC50 in assay [1] (setting [4]) and in assay [3] (setting [6]) were 7.3 nM and 5100 nM, respectively.

Take `Cc1ccc(-n2cnc3c2C(=O)CC(C)(C)C3)cc1C#N` [C-ABY, 5-(5,5-Dimethyl-7-oxo-4,5,6,7-tetrahydro-benzoimidazol-1-yl)-2-methyl-benzonitrile]: the values for the 50% inhibitory concentration (IC50) in assay [1] (setting [4]) and in assay [3] (setting [5]) were 130 nM and 7300 nM, respectively.

Turning to `CC1(C)CC(=O)c2c(ncn2C2Cc3ccccc3C2)C1` [C-ADG], the IC50 in assay [1] (setting [4]) is 47 nM; in assay [3] (setting [5]), 61000 nM.
